Results from US6518243B1, “Desleucyl glycopeptide antibiotics and methods of making same” (Trustees of Princeton University, priority 1999, dated 2003).

Assays:
[1] = system: E. faecalis (CL 4877); test: Zone of inhibition screen, 96 well agar array format; format: cell-based; set-up: scale not given here; conditions: zone of inhibition relative to 1 mg/ml p-chlorobiphenylvancomycin
Outline: (§1)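 Compounds are screened one by one for antibacterial effect in an agar array of 96 wells, using the same set of strains throughout.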

[2] = system: S. aureus (ATCC 29213); test: as above; format: cell-based; set-up: scale not given here; conditions: zone of inhibition relative to 1 mg/ml p-chlorobiphenylvancomycin
Outline: as §1

CC1OC(OC2C(Oc3c4cc5cc3Oc3ccc(cc3Cl)C(O)C3NC(=O)C(NC(=O)C5NC(=O)C(CC(N)=O)NC(=O)C(NC(=O)CCNC(N)=O)C(O)c5ccc(c(Cl)c5)O4)c4ccc(O)c(c4)-c4c(O)cc(O)cc4C(C(=O)O)NC3=O)OC(CO)C(O)C2O)CC(C)(NCc2ccc(-c3ccc(Cl)cc3)cc2)C1O (stereo not drawn) [Compound 221]
zone score, E. faecalis CL 4877 [1]: 2
zone score, S. aureus ATCC 29213 [2]: 2

CC1OC(OC2C(Oc3c4cc5cc3Oc3ccc(cc3Cl)C(O)C3NC(=O)C(NC(=O)C5NC(=O)C(CC(N)=O)NC(=O)C(NC(=O)CON)C(O)c5ccc(c(Cl)c5)O4)c4ccc(O)c(c4)-c4c(O)cc(O)cc4C(C(=O)O)NC3=O)OC(CO)C(O)C2O)CC(C)(NCc2ccc(-c3ccc(Cl)cc3)cc2)C1O (stereo not drawn) [Compound 222]
zone score, E. faecalis CL 4877 [1]: 2
zone score, S. aureus ATCC 29213 [2]: 2

CC1OC(OC2C(Oc3c4cc5cc3Oc3ccc(cc3Cl)C(O)C3NC(=O)C(NC(=O)C5NC(=O)C(CC(N)=O)NC(=O)C(NC(=O)CNC(=O)CNC(=O)OC(C)(C)C)C(O)c5ccc(c(Cl)c5)O4)c4ccc(O)c(c4)-c4c(O)cc(O)cc4C(C(=O)O)NC3=O)OC(CO)C(O)C2O)CC(C)(NCc2ccc(-c3ccc(Cl)cc3)cc2)C1O (stereo not drawn) [Compound 223]
zone score, E. faecalis CL 4877 [1]: 2
zone score, S. aureus ATCC 29213 [2]: 2

CC1OC(OC2C(Oc3c4cc5cc3Oc3ccc(cc3Cl)C(O)C3NC(=O)C(NC(=O)C5NC(=O)C(CC(N)=O)NC(=O)C(NC(=O)c5cccnc5Sc5ccc(Cl)cc5)C(O)c5ccc(c(Cl)c5)O4)c4ccc(O)c(c4)-c4c(O)cc(O)cc4C(C(=O)O)NC3=O)OC(CO)C(O)C2O)CC(C)(NCc2ccc(-c3ccc(Cl)cc3)cc2)C1O (stereo not drawn) [Compound 230]
zone score, E. faecalis CL 4877 [1]: 2
zone score, S. aureus ATCC 29213 [2]: 2

C=C(C(=O)NC1C(=O)NC(CC(N)=O)C(=O)NC2C(=O)NC3C(=O)NC(C(=O)NC(C(=O)O)c4cc(O)cc(O)c4-c4cc3ccc4O)C(O)c3ccc(c(Cl)c3)Oc3cc2cc(c3OC2OC(CO)C(O)C(O)C2OC2CC(C)(NCc3ccc(-c4ccc(Cl)cc4)cc3)C(O)C(C)O2)Oc2ccc(cc2Cl)C1O)C(F)(F)F (stereo not drawn) [Compound 231]
zone score, E. faecalis CL 4877 [1]: 2
zone score, S. aureus ATCC 29213 [2]: 2

CC1OC(OC2C(Oc3c4cc5cc3Oc3ccc(cc3Cl)C(O)C(NC(=O)C(C)(CO)CO)C(=O)NC(CC(N)=O)C(=O)NC5C(=O)NC3C(=O)NC(C(=O)NC(C(=O)O)c5cc(O)cc(O)c5-c5cc3ccc5O)C(O)c3ccc(c(Cl)c3)O4)OC(CO)C(O)C2O)CC(C)(NCc2ccc(-c3ccc(Cl)cc3)cc2)C1O (stereo not drawn) [Compound 232]
zone score, E. faecalis CL 4877 [1]: 2
zone score, S. aureus ATCC 29213 [2]: 2

CC1OC(OC2C(Oc3c4cc5cc3Oc3ccc(cc3Cl)C(O)C3NC(=O)C(NC(=O)C5NC(=O)C(CC(N)=O)NC(=O)C(NC(=O)COc5cc(Cl)c(Cl)cc5Cl)C(O)c5ccc(c(Cl)c5)O4)c4ccc(O)c(c4)-c4c(O)cc(O)cc4C(C(=O)O)NC3=O)OC(CO)C(O)C2O)CC(C)(NCc2ccc(-c3ccc(Cl)cc3)cc2)C1O (stereo not drawn) [Compound 233]
zone score, E. faecalis CL 4877 [1]: 2
zone score, S. aureus ATCC 29213 [2]: 2

COc1ccc(C(=O)NC2C(=O)NC(CC(N)=O)C(=O)NC3C(=O)NC4C(=O)NC(C(=O)NC(C(=O)O)c5cc(O)cc(O)c5-c5cc4ccc5O)C(O)c4ccc(c(Cl)c4)Oc4cc3cc(c4OC3OC(CO)C(O)C(O)C3OC3CC(C)(NCc4ccc(-c5ccc(Cl)cc5)cc4)C(O)C(C)O3)Oc3ccc(cc3Cl)C2O)c(OC)c1 (stereo not drawn) [Compound 236]
zone score, E. faecalis CL 4877 [1]: 2
zone score, S. aureus ATCC 29213 [2]: 2

Cc1cnc(C(=O)NC2C(=O)NC(CC(N)=O)C(=O)NC3C(=O)NC4C(=O)NC(C(=O)NC(C(=O)O)c5cc(O)cc(O)c5-c5cc4ccc5O)C(O)c4ccc(c(Cl)c4)Oc4cc3cc(c4OC3OC(CO)C(O)C(O)C3OC3CC(C)(NCc4ccc(-c5ccc(Cl)cc5)cc4)C(O)C(C)O3)Oc3ccc(cc3Cl)C2O)cn1 (stereo not drawn) [Compound 243]
zone score, E. faecalis CL 4877 [1]: 2
zone score, S. aureus ATCC 29213 [2]: 2
